US6413764B1, “Human metabotropic glutamate receptors, nucleic acids encoding same and uses thereof” (Merck & Co., Inc., priority 1993, dated 2002)

What was measured:
human mGluR5a receptor [1] = target: T1, human mGluR5a receptor (Homo sapiens, UniProt P41594); experiment: Automated fluorescence assay (fluo-3) in transiently transfected HEK 293 cells; format: cell-based; set-up: expressed in transfected cells; host or cells: HEK 293 cells, transient CaPO4 transfection; settings: cells transfected with mGluR5a2
T1 sequence (P41594 21-1180 isoform P41594-2 limits assumed): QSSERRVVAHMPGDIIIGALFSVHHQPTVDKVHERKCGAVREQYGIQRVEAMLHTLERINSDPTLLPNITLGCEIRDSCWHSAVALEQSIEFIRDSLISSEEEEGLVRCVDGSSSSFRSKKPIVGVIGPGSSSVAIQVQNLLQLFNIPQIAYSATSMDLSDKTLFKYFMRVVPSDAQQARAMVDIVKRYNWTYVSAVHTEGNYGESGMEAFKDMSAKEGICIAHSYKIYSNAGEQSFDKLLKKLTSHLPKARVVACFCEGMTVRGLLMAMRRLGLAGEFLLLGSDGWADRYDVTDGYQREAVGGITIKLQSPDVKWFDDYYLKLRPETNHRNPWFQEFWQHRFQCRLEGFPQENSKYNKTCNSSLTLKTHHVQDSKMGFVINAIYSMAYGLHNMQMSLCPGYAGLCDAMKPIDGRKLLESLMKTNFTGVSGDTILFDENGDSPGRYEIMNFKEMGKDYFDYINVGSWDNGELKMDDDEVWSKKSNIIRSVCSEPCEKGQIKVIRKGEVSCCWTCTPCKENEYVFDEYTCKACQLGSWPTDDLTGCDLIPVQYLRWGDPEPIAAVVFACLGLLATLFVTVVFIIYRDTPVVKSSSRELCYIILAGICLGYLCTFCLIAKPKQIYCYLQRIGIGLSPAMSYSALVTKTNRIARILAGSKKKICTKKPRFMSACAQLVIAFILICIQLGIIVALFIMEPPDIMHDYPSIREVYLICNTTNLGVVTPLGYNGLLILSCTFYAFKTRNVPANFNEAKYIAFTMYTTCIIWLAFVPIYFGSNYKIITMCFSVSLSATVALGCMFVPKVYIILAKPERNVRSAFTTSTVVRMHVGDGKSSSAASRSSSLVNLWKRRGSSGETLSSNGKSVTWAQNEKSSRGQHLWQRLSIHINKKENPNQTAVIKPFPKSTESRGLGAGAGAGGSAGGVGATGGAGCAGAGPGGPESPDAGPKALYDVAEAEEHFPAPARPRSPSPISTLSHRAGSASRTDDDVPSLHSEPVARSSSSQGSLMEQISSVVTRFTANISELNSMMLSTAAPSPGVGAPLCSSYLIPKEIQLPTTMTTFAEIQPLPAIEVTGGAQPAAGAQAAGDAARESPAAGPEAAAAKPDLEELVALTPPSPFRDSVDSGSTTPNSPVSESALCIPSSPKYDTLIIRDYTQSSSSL
Procedure: HEK 293 cells were transiently transfected with DNA encoding mGluR5a (constructs mGluR5a2 and mGluR5a3 and construct MMTV-hmGluR5a) receptors. Approximately 2×10^6 HEK cells were transiently transfected with 5-18 μg (or 0.18 μg in some transfections, see Example 3.C.2.) of the indicated plasmid according to standard CaPO4 transfection procedures [see Wigler et al. (1979) Proc. Natl. Acad. Sci. USA 76:1373-1376]. In addition, 0.5-2 μg (or 0.18 μg in some transfections, see Example 3.C.2) of plasmid pCMVβgal (Clontech Laboratories, Palo Alto, Calif.), which contains the Escherichia coli β-galactosidase gene fused to the CMV promoter, were co-transfected as a reporter gene for monitoring the efficiency of transfection. The transfectants were analyzed for β-galactosidase expression by direct staining of the product of a reaction involving β-galactosidase and the X-gal substrate [Jones (1986) EMBO 5:3133-3142]. Transfectants can also be analyzed for β-galactosidase expression by measurement of β-galactosidase activity [Miller (1972) in Experiments in Molecular Genetics, pp.352-355, Cold Spring Harbor Press].
HEK 293 cells that were transiently transfected with 5 μg of MMTV-hmGluR5A were co-transfected with 5 μg of pRShGR (ATCC accession no. 67200) which contains DNA encoding a glucocorticoid receptor operatively linked to the Rous Sarcoma virus (RSV) LTR promoter. Co-expression of glucocorticoid receptors in these cells should insure that induction of expression of the MMTV promoter-mGluR5a DNA occurs upon addition of glucocorticoid (e.g., dexamethasone) to the cells.
Untransfected HEK 293 cells (or HEK 293 cells transiently transfected with pCMV-T7-3) and HEK 293 cells that had been transfected with mGluR5a-encoding DNA were plated in the wells of a 96-well microtiter dish (Nunc Catalog No. 1-6708, distributed by Alameda Industries, Escondido, Calif.) that had been precoated with poly-L-lysine at a density of 2×10^5 cells/well and loaded with fluo-3 by incubation for 2 hours at 20° C. in a medium containing 20 μM fluo-3, 0.2% Pluronic F-127 in HBS (125 mM NaCl, 5 mM KCl, 1.8 mM CaCl2, 0.62 MM MgCl2, 20 mM glucose, 20 mM HEPES, pH 7.4). The cells were then washed with assay buffer (i.e. HBS). The microtiter dish was then placed into a fluorescence plate reader (e.g., Fluoroskan II, Lab Products International, Ltd., Raleigh, N.C.), and the basal fluorescence of each well was measured and recorded before addition of metabotropic receptor-modulating compounds such as quisqualate, glutamate, trans-ACPD (1-amino-cyclopentane-1,3-dicarboxylic acid), 1S,3R-ACPD, AP3 (2-amino-3-phosphonopropionate) AP5 (2-amino-5-phosphonopentanoate), and CNQX (6-cyano-7-nitroquinoxaline-2,3-dione) to the wells. The fluorescence of the wells was monitored repeatedly (75 readings at 0.63-sec intervals) following addition of agonist.

human mGluR5a receptor [2] = target: T1, human mGluR5a receptor; experiment: Phosphatidylinositol hydrolysis (IP1) assay in HEK 293 cells transiently transfected with mGluR5a3; format: cell-based; set-up: expressed in transfected cells; host or cells: HEK 293 cells, transient CaPO4 transfection; settings: 1 mM AP3
Procedure: HEK 293 cells that had been transiently transfected with mGluR5a3 were plated in 24-well microtiter plates at a density of 8×10^5 cells/well. After the cells were allowed to settle and adhere to the bottom of the plate for a few hours, 2 μCi of [^3H]-myo-inositol (Amersham catalog # PT6-271, Arlington Heights, Ill.; specific activity=17.7 Ci/mmol) was added to each well and incubated overnight at 37° C. The next day, the cells were examined under a Nikon Diaphot inverted microscope to assess the health of the cells morphologically as well as to determine if the wells contained a confluent layer of cells. Media was then aspirated and the cells were washed twice with 0.5 ml Krebs bicarbonate buffer [117.9 mM NaCl, 4.72 mM KCl, 2.54 mM CaCl2, 1.18 mM MgSO4, 1.19 mM KH2PO4, 25 mM NaHCO3, 11.1 mM dextrose (equilibrated with 95% O2, 5% CO2, pH 7.4)]. The cells were incubated for 45 min. at room temperature. The buffer was then aspirated from each well and the cells were washed and incubated in 0.5 ml/well for 45 min at room temperature. The buffer was aspirated from each well, and the cells were then incubated for 20 min at 37° C. with 450 μl Krebs-bicarbonate buffer containing 10 mM LiCl instead of 10 mM NaCl (to block hydrolysis of IP1 to inositol and inorganic phosphate) and 10 mM unlabeled myo-inositol.
To begin treatment of the cells with metabotropic receptor-modulating compounds, 50 μl of Krebs-bicarbonate buffer (control) or 10× the final concentration of the compound was added to each well and the incubation was continued for 40 min. Incubation was terminated by addition of 1 ml ice-cold methanol to each well.
In order to isolate IP1 from the cells, the cells were removed from the plates by scraping with plastic pipette tips, and the cell suspension was transferred to 12×75 mm glass tubes. The tubes were thoroughly vortexed, and a 150-μl aliquot, i.e., one-tenth of the total volume, of each reaction mixture was transferred to another tube for protein determination. The water-soluble inositol phosphates were separated from the radiolabelled membrane phospholipids by extraction in 1 ml chloroform. The tubes were incubated at room temperature for 30 min before centrifugation at 500×g for 5 min at 4° C. The aqueous (top) layer containing the [^3H]-inositol phosphates was transferred to 10-ml syringes connected to Accell QMA SEP-PAK columns (Millipore; Calif.), which were attached to an Amersham Superseparator apparatus that was modified to allow collection into 20-ml scintillation vials. Water (10 ml) was added to the cartridge to remove [^3H]-inositol precursor, followed by 4 ml 0.02 M triethylammonium hydrogen carbonated buffer (TEAB, Fluka; N.Y.). To separately remove [^3H]-IP1, [^3H]-IP2 and [^3H]-IP3 from the cartridge, 4 ml of 0.1 M TEAB, 4 ml of 0.3 M TEAB and 4 ml of 0.4 M TEAB were sequentially added to the cartridge and the separate eluate fractions were collected in large scintillation vials. Ecolume cocktail (15 ml; ICN; California) was added to each vial for subsequent scintillation counting to determine the amount of each IP in the separate fractions. Protein concentration was determined using the Bio-Rad Protein Micro-Assay (Bio-Rad, Richmond, Calif.).

human mGluR5a receptor [3] = target: T1, human mGluR5a receptor; experiment: [3H]-glutamate binding to membranes of HEK 293 cells transfected with mGluR5a3; set-up: expressed in transfected cells; host or cells: HEK 293 cells, transient CaPO4 transfection; settings: 200 μg of membranes, 100 nM [3H]-glutamate
Procedure: In order to prepare membranes from HEK 293 cells transfected. with mGluR5a-encoding DNA or pUC19 (negative control), cells were scraped from the tissue culture plates, and the plates rinsed with 5 ml of PBS (phosphate-buffered saline: 137 mM NaCl, 2.7 mM KCl, 10 mM Na2HPO4, 1.7 mM KH2PO4). The cells were centrifuged at low speed in a table-top centrifuge, and the cell pellet was rinsed with PBS. The cell pellet was resuspended in 20 volumes of 50 mM Tris-HCl containing 0.5 mM PMSF, pH 7.6. The cells were homogenized on ice in a Dounce (teflon/glass) homogenizer using 10-20 strokes. The homogenate was centrifuged at 120,000×g for 30 min. at 4° C. The final membrane pellet was resuspended in 50 mM Tris-HCl containing 0.5 mM PMSF, pH 7.6. […] The protein concentration was determined using the method of Bradford [(1976) Anal. Biochem. 72:248).
Specific binding of [^3H]-glutamate to membranes prepared from HEK 293 cells transfected with mGluR5a-encoding DNA or pUC19 was determined essentially as described for measuring binding to rat brain membranes with minor modifications. […] NMDA, AMPA and kainate were excluded from the assay mixture when HEK 293 cell membranes were being analyzed for [^3H]-glutamate binding.
Specific binding of [^3H]-glutamate to membranes prepared from HEK 293 cells transfected with mGluR5a3 or pUC19 was measured using 200 μg of membranes and 100 nM [^3H]-glutamate.

[4] = system: olfactory cyclic nucleotide-gated channel; experiment: Single-cell video imaging of [Ca++]i in HEK293 cells transfected with pCMV-OCNA; format: cell-based; settings: 1 mM IBMX
Procedure: The transfectants were also analyzed by single-cell video imaging of internal calcium levels ([Ca^++]i). This method allows analysis of cyclic nucleotide-gated channel activity by measurement of intracellular calcium levels, which change with the amount of calcium influx through the channel, as regulated by cyclic nucleotide activation of the channel. The imaging assay was conducted essentially as described in Example 3.C.1.b., with some modifications. After dye loading, the cells were examined using a Zeiss Axiovert microscope and 100 W mercury lamp, a Dage intensified CCD camera, and Image-1 hardware and software for image processing. The software controlled the alternate excitation of the cells at 350 and 385 nm (typically every 5 seconds) through a 20×1.3 N.A. oil immersion objective. Light emitted at greater than 510 nm was collected by the CCD camera, digitized, and 350 and 385 nm excitation images were background-subtracted before calculating the 350/385 nm intensity ratio.
For quantitative analysis, the average 350/385 ratio value in a 12 by 12 pixel region over each cell was calculated by the software for each ratio image in an experiment and imported into a spreadsheet for further analysis and graphing. […]
In these experiments, the HEK293 cell transfectants were exposed to agents which increase intracellular cAMP levels and monitored for subsequent changes in [Ca^++]i. […]

[5] = system: endogenous G-protein-coupled muscarinic acetylcholine receptors; experiment: Fluorescence imaging assay (fura-2), response to muscarinic agonist; format: cell-based, human; settings: 1 mM; transfectants and untransfected HEK 293 cells
Procedure: HEK 293 cells that had been transiently transfected with mGluR5a3 and untransfected HEK 293 cells (control) were analyzed by digital video imaging in order to visualize metabotropic receptor-mediated changes in intracellular Ca^++ concentration. Transfectants (4×10^5 cells per 35-mm culture dish with glass-insert bottom) were loaded with fura-2 by exposing the cells to 1 μM fura-2 (acetoxymethyl ester) for 25 min at room temperature in the dark. The cells were then washed three times with DMEM and four times with Ringer's (160 mM NaCl, 5 mM KCl, 2 mM CaCl2, 1 mM MgCl2, 11 mM glucose, 5 mM HEPES, pH 7.3) solution.
The transfectants and untransfected cells were then placed on the stage of an Axiovert 100 TV inverted microscope (Zeiss, Oberkochren, Germany) equipped with a 150 W xenon lamp as the UV light source. […]
The uncalibrated fura-2 ratios were used to generate pseudocolor images with purple corresponding to resting intracellular Ca^++ concentration (˜100 nM) and red to high intracellular Ca^++ concentration (˜1 μM). For quantitative analysis, the average ratio value in a 12-by-12 pixel region over each cell was calculated by the software for each ratio image in an experiment and imported into a spreadsheet for further analysis and graphing.

[6] = target: olfactory cyclic nucleotide-gated channel (Rattus norvegicus, UniProt Q00195); settings: 1 mM cAMP; membrane potential ramped from −100 to +100 mV in 2 seconds; one patch
olfactory cyclic nucleotide-gated channel (Rattus norvegicus, UniProt Q00195), sequence (Q00195 whole entry): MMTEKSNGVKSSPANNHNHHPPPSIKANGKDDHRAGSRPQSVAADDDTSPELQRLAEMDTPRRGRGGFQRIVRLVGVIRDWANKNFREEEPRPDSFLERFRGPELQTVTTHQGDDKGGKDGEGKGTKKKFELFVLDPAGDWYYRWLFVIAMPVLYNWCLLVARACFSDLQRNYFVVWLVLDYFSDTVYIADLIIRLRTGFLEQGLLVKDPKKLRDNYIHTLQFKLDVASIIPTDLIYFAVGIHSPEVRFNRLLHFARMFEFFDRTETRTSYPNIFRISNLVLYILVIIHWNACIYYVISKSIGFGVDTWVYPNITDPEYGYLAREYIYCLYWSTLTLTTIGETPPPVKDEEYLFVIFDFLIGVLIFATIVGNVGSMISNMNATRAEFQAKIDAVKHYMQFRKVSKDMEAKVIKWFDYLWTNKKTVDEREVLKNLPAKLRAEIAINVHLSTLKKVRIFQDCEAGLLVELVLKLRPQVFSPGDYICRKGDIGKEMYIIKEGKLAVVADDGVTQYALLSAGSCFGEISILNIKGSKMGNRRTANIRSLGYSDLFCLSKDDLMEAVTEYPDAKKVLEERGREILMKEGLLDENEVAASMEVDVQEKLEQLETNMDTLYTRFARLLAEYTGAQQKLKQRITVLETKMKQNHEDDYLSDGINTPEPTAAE
Procedure: HEK293 cells were grown in monolayers (approximately 2×10^6 cells per 10 cm poly-D-lysine-coated plate) in Dulbecco's modified Eagle's medium (DMEM; Gibco) containing 5% defined supplemented calf serum (Hyclone) including 100 U/ml penicillin and 100 μg/ml streptomycin sulfate. […] Transfection efficiencies, as determined by measuring β-galactosidase activity, were 50-70%.
HEK cells transfected with olfactory cyclic nucleotide-gated channel DNA were incubated 24-48 hours before testing for function. The activity of the channels was first assessed electrophysiologically using inside-out membrane patches pulled from the transfected cells so that the concentration of cAMP reaching the cytoplasmic face could be controlled (see, e.g., Single-Channel Recording, Sakmann and Neher, eds., Plenum Press, N.Y. (1983)). […]

For NC(CP(=O)(O)O)C(=O)O (centres unmarked) [AP3, 2-amino-3-phosphonopropionate], the “inhibition of glutamate-, quisqualate- or trans-ACPD-stimulated fluorescence increases” value (human mGluR5a receptor [1]) was “Neither of these compounds (AP3, AP5 or CNQX) inhibited” and the “effect on quisqualate-induced increase in IP1 levels” value (human mGluR5a receptor [2]) was “not affected”.
[^3H]-glutamate was tested, and the “specific binding versus membranes of pUC19-transfected cells” value (human mGluR5a receptor [3]) was “significantly higher”.
For CC(C)Cn1c(=O)n(C)c(=O)c2[nH]cnc21 [IBMX, 3-isobutyl-1-methylxanthine], the “change in [Ca++]i” value [4] was “more significant increase”.
C[N+](C)(C)CCOC(N)=O.[Cl-] [carbamylcholine] was tested, and the “intracellular Ca++ concentration change” value [5] was “detectable increase in the intracellular Ca^++ concentration of the majority of the cells”.
In the case of NC(CCCP(=O)(O)O)C(=O)O (centres unmarked) [AP5, 2-amino-5-phosphonopentanoate], the “inhibition of glutamate-, quisqualate- or trans-ACPD-stimulated fluorescence increases” value (human mGluR5a receptor [1]) is reported as “Neither of these compounds (AP3, AP5 or CNQX) inhibited”.
For Nc1ncnc2c1ncn2[C@@H]1O[C@@H]2COP(=O)(O)O[C@H]2[C@H]1O [cAMP, cyclic AMP], the “current in inside-out patch” value [6] was “a current was elicited”.
For N#Cc1cc2c(cc1[N+](=O)[O-])=NC(=O)C(=O)N=2 [CNQX, 6-cyano-7-nitroquinoxaline-2,3-dione], the “inhibition of glutamate-, quisqualate- or trans-ACPD-stimulated fluorescence increases” value (human mGluR5a receptor [1]) was “Neither of these compounds (AP3, AP5 or CNQX) inhibited”.
